# What was measured:
# Experiment in all cases: relative viability (nuclei count vs DMSO), 5 days (fraction); higher = more cells survive
# [1] = compound: CN(c1ncccc1CNc1nc(Nc2ccc3c(c2)CC(=O)N3)ncc1C(F)(F)F)S(C)(=O)=O + CC1(C)CCC(c2ccc(Cl)cc2)=C(CN2CCN(c3ccc(C(=O)NS(=O)(=O)c4ccc(N[C@H](CCN5CCOCC5)CSc5ccccc5)c(S(=O)(=O)C(F)(F)F)c4)cc3)CC2)C1 [Navitoclax] (partner 0.5 µM)
# Summary of the method: (§1)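 Relative viability was taken as the ratio of nuclei in treated wells to nuclei in vehicle wells. Lung cancer cell lines in 1536-well plates received compounds by pin tool one day after seeding, either one drug alone or a fixed anchor-drug dose plus five library-drug doses (not always all listed) in √10 steps. Nuclei were counted on 4× images after 5 days of treatment, and values are medians of duplicate plates.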
# [2] = compound: CN(c1ncccc1CNc1nc(Nc2ccc3c(c2)CC(=O)N3)ncc1C(F)(F)F)S(C)(=O)=O + C[C@@H](Oc1cc(-c2cnn(C3CCNCC3)c2)cnc1N)c1c(Cl)ccc(F)c1Cl [Crizotinib] (partner 1 µM)
# Summary of the method: as §1
# [3] = compound: CN(c1ncccc1CNc1nc(Nc2ccc3c(c2)CC(=O)N3)ncc1C(F)(F)F)S(C)(=O)=O + Cc1cc(Nc2cc(N3CCN(C)CC3)nc(Sc3ccc(NC(=O)C4CC4)cc3)n2)n[nH]1 [Tozasertib] (partner 0.1 µM)
# Summary of the method: as §1
# [4] = compound: CN(c1ncccc1CNc1nc(Nc2ccc3c(c2)CC(=O)N3)ncc1C(F)(F)F)S(C)(=O)=O + O=C(CCCCCCC(=O)Nc1ccccc1)NO [Vorinostat] (partner 1 µM)
# Summary of the method: as §1
Cell Line,relative viability ([1]; first compound 0.01 µM),relative viability ([1]; first compound 0.03162 µM),relative viability ([1]; first compound 0.1 µM),relative viability ([1]; first compound 0.3162 µM),relative viability ([1]; first compound 1 µM),relative viability ([2]; first compound 0.01 µM),relative viability ([2]; first compound 0.03162 µM),relative viability ([2]; first compound 0.1 µM),relative viability ([2]; first compound 0.3162 µM),relative viability ([2]; first compound 1 µM),relative viability ([3]; first compound 0.01 µM),relative viability ([3]; first compound 0.03162 µM),relative viability ([3]; first compound 0.1 µM),relative viability ([3]; first compound 0.3162 µM),relative viability ([3]; first compound 1 µM),relative viability ([4]; first compound 0.01 µM),relative viability ([4]; first compound 0.03162 µM),relative viability ([4]; first compound 0.1 µM),relative viability ([4]; first compound 0.3162 µM),relative viability ([4]; first compound 1 µM)
COR-L23,0.929,1.09,0.933,1.01,0.826,0.653,0.649,0.7,0.594,0.486,0.184,0.195,0.186,0.146,0.129,0.471,0.392,0.327,0.305,0.295
NCI-H1993,0.822,0.892,0.998,0.911,0.9,0.908,0.907,0.774,0.899,0.846,0.528,0.615,0.659,0.595,0.551,0.831,0.773,0.805,0.709,0.577
NCI-H1437,1.1,1.09,1.16,0.986,0.968,0.912,1.02,0.884,0.856,0.77,0.424,0.483,0.397,0.411,0.355,0.763,0.846,0.697,0.597,0.414
UMC-11,0.321,0.296,0.313,0.297,0.235,0.59,0.584,0.654,0.476,0.298,0.198,0.184,0.187,0.181,0.206,0.417,0.363,0.314,0.331,0.229
201T,1.21,1.26,1.18,1.16,1.15,1.05,0.991,1.02,0.975,1,0.921,1,0.912,0.845,0.894,0.971,0.98,0.915,0.9,0.923
ChaGo-K-1,1.04,0.819,1.11,–,1.08,1.1,1.21,1.08,–,1.05,0.233,0.231,0.223,0.236,0.205,0.756,0.708,0.778,0.816,0.738
NCI-H1650,1.26,1.39,1.39,–,0.76,1.01,0.945,1.17,–,0.94,0.497,0.359,0.429,0.323,0.269,0.682,0.513,0.581,0.586,0.69
LOU-NH91,0.695,0.751,0.772,0.762,0.793,0.78,0.751,0.727,0.692,0.763,0.641,0.674,0.647,0.645,0.576,0.957,0.99,0.852,0.907,0.976
HOP-62,1.18,1.07,0.94,1.04,0.934,0.926,1.04,0.962,0.809,1.04,0.408,0.42,0.391,0.318,0.262,0.759,0.769,0.574,0.732,0.596
NCI-H1915,0.803,0.849,0.786,0.765,0.728,0.908,0.915,0.877,0.834,0.885,0.488,0.488,0.462,0.424,0.373,0.535,0.534,0.593,0.536,0.519
NCI-H3122,1.07,1.01,0.941,0.977,0.936,0.283,0.289,0.283,0.278,0.241,0.61,0.383,0.403,0.402,0.341,1.03,0.963,1.04,1,1.06
NCI-H1651,1.07,1,1.21,0.867,0.976,0.858,0.85,0.871,0.846,0.884,0.67,0.719,0.671,0.681,0.515,0.565,0.566,0.535,0.568,0.571
NCI-H838,1.17,1.35,1.27,1.02,0.851,0.807,1.02,0.873,0.672,0.488,0.27,0.336,0.261,0.272,0.19,0.715,0.731,0.94,0.589,0.437
NCI-H596,0.9,0.912,0.965,0.86,0.675,0.988,0.928,0.894,0.986,0.999,0.886,0.938,0.899,0.813,0.632,0.586,0.616,0.566,0.557,0.69
SK-LU-1,0.878,0.841,0.735,0.766,0.768,0.944,0.882,0.858,0.808,0.784,0.339,0.308,0.307,0.294,0.262,0.6,0.693,0.722,0.711,0.594
NCI-H441,0.476,0.687,0.479,0.706,0.374,0.679,0.825,0.604,0.692,0.654,0.697,0.628,0.581,0.583,0.512,0.933,0.978,0.824,0.792,0.644

# Reference: the supplement of paper PMC10307832
